Measurements reported in patent US20250230193A1, “CYCLIC COMPOUND HAVING SELECTIVE KRAS INHIBITORY EFFECT ON HRAS AND NRAS” (CHUGAI SEIYAKU KABUSHIKI KAISHA, priority 2022, published 2025).

Tests used:
[1] = molecular target: GDP-bound NRAS wild-type protein (Homo sapiens, UniProt P01111); experiment: Binding to NRAS by surface plasmon resonance (SPR), Single Cycle Kinetics; details: KD ratio NRAS/KRAS, class symbols
[2] = molecular target: GDP-bound HRAS wild-type protein (Homo sapiens, UniProt P01112); experiment: Binding to HRAS by surface plasmon resonance (SPR), Single Cycle Kinetics; details: KD ratio HRAS/KRAS, class symbols
Sequence of GDP-bound HRAS wild-type protein (P01112 whole entry): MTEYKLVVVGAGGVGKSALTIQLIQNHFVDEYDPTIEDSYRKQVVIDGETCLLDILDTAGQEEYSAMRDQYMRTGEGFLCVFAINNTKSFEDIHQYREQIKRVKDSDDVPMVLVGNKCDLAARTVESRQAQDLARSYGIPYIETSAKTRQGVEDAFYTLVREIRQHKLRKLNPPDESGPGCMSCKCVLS

Sequence of GDP-bound NRAS wild-type protein (P01111 whole entry): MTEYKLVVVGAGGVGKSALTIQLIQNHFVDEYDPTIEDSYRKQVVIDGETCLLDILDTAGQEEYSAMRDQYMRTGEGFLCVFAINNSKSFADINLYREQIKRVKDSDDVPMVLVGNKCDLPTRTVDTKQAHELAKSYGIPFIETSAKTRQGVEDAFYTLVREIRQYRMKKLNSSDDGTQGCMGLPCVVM

| Structure (SMILES) | NRAS/KRAS (ratio of KD value with respect to GDP-bound NRAS wild-type protein to KD value with respect to KRAS) [1] | HRAS/KRAS (ratio of KD value with respect to GDP-bound HRAS wild-type protein to KD value with respect to KRAS) [2] |
| --- | --- | --- |
| CCO[C@@H]1C[C@H]2C(=O)NC3(CC(C)(C)C3)C(=O)N(C)[C@@H](C3CCCC3)C(=O)N(C)[C@H](C(=O)N3CCCCC3)CC(=O)N(C)[C@@H](COC)C(=O)N[C@@H]([C@@H](C)CC)C(=O)N(C)CC(=O)N(C)[C@H]3C/C=C\CCN(C3=O)[C@@H](Cc3ccc(C)cc3)C(=O)N(C)CC(=O)N[C@@H](CCc3cc(F)c(C(F)(F)F)c(F)c3)C(=O)N2C1 [PP2668] | A (a compound having 10 or more and less than 20 is denoted as A) | A (a compound having 10 or more and less than 20 is denoted as A) |
| CC[C@H](C)[C@@H]1NC(=O)[C@H](COC)N(C)C(=O)C[C@@H](C(=O)N2CCCCC2)N(C)C(=O)[C@H](C2CCCC2)N(C)C(=O)C2(CC(C)(C)C2)NC(=O)[C@@H]2C[C@@H](OC(C)C)CN2C(=O)[C@H](CCc2cc(F)c(C(F)(F)F)c(F)c2)NC(=O)CN(C)C(=O)[C@H](Cc2ccc(C)cc2)N2CC/C=C\C[C@@H](C2=O)N(C)C(=O)CN(C)C1=O [PP2669] | A (a compound having 10 or more and less than 20 is denoted as A) | A (a compound having 10 or more and less than 20 is denoted as A) |
| CCO[C@@H]1C[C@H]2C(=O)NC3(CC(C)(C)C3)C(=O)N(C)[C@@H](C3CCCC3)C(=O)N(C)[C@H](C(=O)N3CCCCC3)CC(=O)N(C)[C@@H](COC)C(=O)N[C@@H]([C@@H](C)CC)C(=O)N(C)CC(=O)N(C)[C@H]3C/C=C\CCN(C3=O)[C@@H](Cc3ccc(C(F)(F)F)cc3)C(=O)N(C)CC(=O)N[C@@H](CCc3ccc(Cl)c(Cl)c3)C(=O)N2C1 [PP2670] | AA (a compound having 20 or more is denoted as AA) | A (a compound having 10 or more and less than 20 is denoted as A) |
| CC[C@H](C)[C@@H]1NC(=O)[C@H](COC)N(C)C(=O)C[C@@H](C(=O)N2CCCCC2)N(C)C(=O)[C@H](C2CCCC2)N(C)C(=O)C2(CC(C)(C)C2)NC(=O)[C@@H]2C[C@@H](OC(C)C)CN2C(=O)[C@H](CCc2ccc(Cl)c(Cl)c2)NC(=O)CN(C)C(=O)[C@H](Cc2ccc(C(F)(F)F)cc2)N2CC/C=C\C[C@@H](C2=O)N(C)C(=O)CN(C)C1=O [PP2671] | A (a compound having 10 or more and less than 20 is denoted as A) | A (a compound having 10 or more and less than 20 is denoted as A) |
| CCO[C@@H]1C[C@H]2C(=O)NC3(CCC3)C(=O)N(C)[C@@H](C3CCCC3)C(=O)N(C)[C@H](C(=O)N(C)C)CC(=O)N(C)[C@@H](CC3CCCC3)C(=O)N[C@@H]([C@@H](C)CC)C(=O)N(C)CC(=O)N(C)[C@H]3C/C=C\CCN(C3=O)[C@@H](Cc3ccc(C)cc3)C(=O)N(C)CC(=O)N[C@@H](CCc3ccc(C(F)(F)F)c(CC)c3)C(=O)N2C1 [PP2672] | B (a compound having 3 or more and less than 10 is denoted as B) | B (a compound having 3 or more and less than 10 is denoted as B) |
| CCO[C@@H]1C[C@H]2C(=O)NC3(CCC3)C(=O)N(C)[C@@H](C3CCCC3)C(=O)N(C)[C@H](C(=O)N(C)C)CC(=O)N(C)[C@@H](CC3CCCC3)C(=O)N[C@@H]([C@@H](C)CC)C(=O)N(C)CC(=O)N(C)[C@H]3C/C=C\CCN(C3=O)[C@@H](Cc3ccc(C)cc3)C(=O)N(C)CC(=O)N[C@@H](CCc3cc(F)c(CC)c(OC)c3)C(=O)N2C1 [PP2674] | A (a compound having 10 or more and less than 20 is denoted as A) | A (a compound having 10 or more and less than 20 is denoted as A) |
| CCO[C@@H]1C[C@H]2C(=O)NC3(CCC3)C(=O)N(C)[C@@H](C3CCCC3)C(=O)N(C)[C@H](C(=O)N(C)C)CC(=O)N(C)[C@@H](CC3CCCC3)C(=O)N[C@@H]([C@@H](C)CC)C(=O)N(C)CC(=O)N(C)[C@H]3C/C=C\CCN(C3=O)[C@@H](Cc3ccc(C)cc3)C(=O)N(C)CC(=O)N[C@@H](CCc3cc(C)c(C(F)F)c(C)c3)C(=O)N2C1 [PP2675] | A (a compound having 10 or more and less than 20 is denoted as A) | A (a compound having 10 or more and less than 20 is denoted as A) |
| CCO[C@@H]1C[C@H]2C(=O)NC3(CCC3)C(=O)N(C)[C@@H](C3CCCC3)C(=O)N(C)[C@H](C(=O)N(C)C)CC(=O)N(C)[C@@H](CC3CCCC3)C(=O)N[C@@H]([C@@H](C)CC)C(=O)N(C)CC(=O)N(C)[C@H]3C/C=C\CCN(C3=O)[C@@H](Cc3ccc(C)cc3)C(=O)N(C)CC(=O)N[C@@H](CCc3cc(C)c(C(F)F)c(F)c3)C(=O)N2C1 [PP2676] | A (a compound having 10 or more and less than 20 is denoted as A) | A (a compound having 10 or more and less than 20 is denoted as A) |
| CCO[C@@H]1C[C@H]2C(=O)NC3(CCC3)C(=O)N(C)[C@@H](C3CCCC3)C(=O)N(C)[C@H](C(=O)N(C)C)CC(=O)N(C)[C@@H](CC3CCCC3)C(=O)N[C@@H]([C@@H](C)CC)C(=O)N(C)CC(=O)N(C)[C@H]3C/C=C\CCN(C3=O)[C@@H](Cc3ccc(C)cc3)C(=O)N(C)CC(=O)N[C@@H](CCc3cc(C)c(C(F)F)c(Cl)c3)C(=O)N2C1 [PP2677] | A (a compound having 10 or more and less than 20 is denoted as A) | A (a compound having 10 or more and less than 20 is denoted as A) |
| CCO[C@@H]1C[C@H]2C(=O)NC3(CCC3)C(=O)N(C)[C@@H](C3CCCC3)C(=O)N(C)[C@H](C(=O)N(C)C)CC(=O)N(C)[C@@H](CC3CCCC3)C(=O)N[C@@H]([C@@H](C)CC)C(=O)N(C)CC(=O)N(C)[C@H]3C/C=C\CCN(C3=O)[C@@H](Cc3ccc(C)cc3)C(=O)N(C)CC(=O)N[C@@H](CCc3cc(Cl)c(C(F)(F)F)c(Cl)c3)C(=O)N2C1 [PP2679] | A (a compound having 10 or more and less than 20 is denoted as A) | A (a compound having 10 or more and less than 20 is denoted as A) |
| CCO[C@@H]1C[C@H]2C(=O)NC3(CCC3)C(=O)N(C)[C@@H](C3CCCC3)C(=O)N(C)[C@H](C(=O)N(C)C)CC(=O)N(C)[C@@H](CC3CCCC3)C(=O)N[C@@H]([C@@H](C)CC)C(=O)N(C)CC(=O)N(C)[C@H]3C/C=C\CCN(C3=O)[C@@H](Cc3ccc(C)cc3)C(=O)N(C)CC(=O)N[C@@H](CCc3ccc(C(F)(F)F)c(C4CC4)c3)C(=O)N2C1 [PP2681] | A (a compound having 10 or more and less than 20 is denoted as A) | A (a compound having 10 or more and less than 20 is denoted as A) |
| CCO[C@@H]1C[C@H]2C(=O)NC3(CCC3)C(=O)N(C)[C@@H](C3CCCC3)C(=O)N(C)[C@H](C(=O)N(C)C)CC(=O)N(C)[C@@H](CC3CCCC3)C(=O)N[C@@H]([C@@H](C)CC)C(=O)N(C)CC(=O)N(C)[C@H]3C/C=C\CCN(C3=O)[C@@H](Cc3ccc(C)cc3)C(=O)N(C)CC(=O)N[C@@H](CCc3ccc(C4CC4)c(F)c3)C(=O)N2C1 [PP2683] | A (a compound having 10 or more and less than 20 is denoted as A) | A (a compound having 10 or more and less than 20 is denoted as A) |
| CCO[C@@H]1C[C@H]2C(=O)NC3(CCC3)C(=O)N(C)[C@@H](C3CCCC3)C(=O)N(C)[C@H](C(=O)N(C)C)CC(=O)N(C)[C@@H](CC3CCCC3)C(=O)N[C@@H]([C@@H](C)CC)C(=O)N(C)CC(=O)N(C)[C@H]3C/C=C\CCN(C3=O)[C@@H](Cc3ccc(C)cc3)C(=O)N(C)CC(=O)N[C@@H](CCc3ccc(C4CC4)c(Cl)c3)C(=O)N2C1 [PP2684] | A (a compound having 10 or more and less than 20 is denoted as A) | A (a compound having 10 or more and less than 20 is denoted as A) |
| CCO[C@@H]1C[C@H]2C(=O)NC3(CCC3)C(=O)N(C)[C@@H](C3CCCC3)C(=O)N(C)[C@H](C(=O)N(C)C)CC(=O)N(C)[C@@H](CC3CCCC3)C(=O)N[C@@H]([C@@H](C)CC)C(=O)N(C)CC(=O)N(C)[C@H]3C/C=C\CCN(C3=O)[C@@H](Cc3ccc(C)cc3)C(=O)N(C)CC(=O)N[C@@H](CCc3ccc(C4CC4)c(C)c3)C(=O)N2C1 [PP2685] | A (a compound having 10 or more and less than 20 is denoted as A) | A (a compound having 10 or more and less than 20 is denoted as A) |
| CCO[C@@H]1C[C@H]2C(=O)NC3(CCC3)C(=O)N(C)[C@@H](C3CCCC3)C(=O)N(C)[C@H](C(=O)N(C)C)CC(=O)N(C)[C@@H](CC3CCCC3)C(=O)N[C@@H]([C@@H](C)CC)C(=O)N(C)CC(=O)N(C)[C@H]3C/C=C\CCN(C3=O)[C@@H](Cc3ccc(C)cc3)C(=O)N(C)CC(=O)N[C@@H](CCc3ccc(CC)c(F)c3)C(=O)N2C1 [PP2686] | A (a compound having 10 or more and less than 20 is denoted as A) | A (a compound having 10 or more and less than 20 is denoted as A) |
| CCC[C@H]1C(=O)N[C@@H]([C@@H](C)CC)C(=O)N(C)CC(=O)N(C)[C@H]2C/C=C\CCN(C2=O)[C@@H](Cc2ccc(C)cc2)C(=O)N(C)CC(=O)N[C@@H](CCc2cc(F)c(C(F)(F)F)c(F)c2)C(=O)N2C[C@H](OCC)C[C@H]2C(=O)NC2(CC(C)(C)C2)C(=O)N(C)[C@@H](CC(C)(C)C)C(=O)N(C)[C@H](C(=O)N(C)C)CC(=O)N1C [PP2706] | A (a compound having 10 or more and less than 20 is denoted as A) | B (a compound having 3 or more and less than 10 is denoted as B) |
